The values that follow are results of earlier work, collected in patent US20180344749A1, “CONTROLLED RELEASE FORMULATIONS OF SALICLATE-RELEASING ACTIVES” (Cogwellin, LLC, priority 2015, published 2018).

The subject of one data set is tau acetylation. To be noted: aspirin rapidly loses its acetyl group.
The target in the next data set is acetyltransferase p300 (Homo sapiens, UniProt Q09472). The note with it: for tau levels: enhance tau turnover.
For data set [1], the system named is PS19 transgenic mouse model of FTD. The note with it: administration after disease onset.
Experiment in data set [2]: not given
This is another data set of the same source.

The conditions of data set [3]: in terms of salicylic acid equivalents.
The conditions of data set [4]: at anti-inflammatory doses.

acetyltransferase p300, sequence (Q09472 whole entry): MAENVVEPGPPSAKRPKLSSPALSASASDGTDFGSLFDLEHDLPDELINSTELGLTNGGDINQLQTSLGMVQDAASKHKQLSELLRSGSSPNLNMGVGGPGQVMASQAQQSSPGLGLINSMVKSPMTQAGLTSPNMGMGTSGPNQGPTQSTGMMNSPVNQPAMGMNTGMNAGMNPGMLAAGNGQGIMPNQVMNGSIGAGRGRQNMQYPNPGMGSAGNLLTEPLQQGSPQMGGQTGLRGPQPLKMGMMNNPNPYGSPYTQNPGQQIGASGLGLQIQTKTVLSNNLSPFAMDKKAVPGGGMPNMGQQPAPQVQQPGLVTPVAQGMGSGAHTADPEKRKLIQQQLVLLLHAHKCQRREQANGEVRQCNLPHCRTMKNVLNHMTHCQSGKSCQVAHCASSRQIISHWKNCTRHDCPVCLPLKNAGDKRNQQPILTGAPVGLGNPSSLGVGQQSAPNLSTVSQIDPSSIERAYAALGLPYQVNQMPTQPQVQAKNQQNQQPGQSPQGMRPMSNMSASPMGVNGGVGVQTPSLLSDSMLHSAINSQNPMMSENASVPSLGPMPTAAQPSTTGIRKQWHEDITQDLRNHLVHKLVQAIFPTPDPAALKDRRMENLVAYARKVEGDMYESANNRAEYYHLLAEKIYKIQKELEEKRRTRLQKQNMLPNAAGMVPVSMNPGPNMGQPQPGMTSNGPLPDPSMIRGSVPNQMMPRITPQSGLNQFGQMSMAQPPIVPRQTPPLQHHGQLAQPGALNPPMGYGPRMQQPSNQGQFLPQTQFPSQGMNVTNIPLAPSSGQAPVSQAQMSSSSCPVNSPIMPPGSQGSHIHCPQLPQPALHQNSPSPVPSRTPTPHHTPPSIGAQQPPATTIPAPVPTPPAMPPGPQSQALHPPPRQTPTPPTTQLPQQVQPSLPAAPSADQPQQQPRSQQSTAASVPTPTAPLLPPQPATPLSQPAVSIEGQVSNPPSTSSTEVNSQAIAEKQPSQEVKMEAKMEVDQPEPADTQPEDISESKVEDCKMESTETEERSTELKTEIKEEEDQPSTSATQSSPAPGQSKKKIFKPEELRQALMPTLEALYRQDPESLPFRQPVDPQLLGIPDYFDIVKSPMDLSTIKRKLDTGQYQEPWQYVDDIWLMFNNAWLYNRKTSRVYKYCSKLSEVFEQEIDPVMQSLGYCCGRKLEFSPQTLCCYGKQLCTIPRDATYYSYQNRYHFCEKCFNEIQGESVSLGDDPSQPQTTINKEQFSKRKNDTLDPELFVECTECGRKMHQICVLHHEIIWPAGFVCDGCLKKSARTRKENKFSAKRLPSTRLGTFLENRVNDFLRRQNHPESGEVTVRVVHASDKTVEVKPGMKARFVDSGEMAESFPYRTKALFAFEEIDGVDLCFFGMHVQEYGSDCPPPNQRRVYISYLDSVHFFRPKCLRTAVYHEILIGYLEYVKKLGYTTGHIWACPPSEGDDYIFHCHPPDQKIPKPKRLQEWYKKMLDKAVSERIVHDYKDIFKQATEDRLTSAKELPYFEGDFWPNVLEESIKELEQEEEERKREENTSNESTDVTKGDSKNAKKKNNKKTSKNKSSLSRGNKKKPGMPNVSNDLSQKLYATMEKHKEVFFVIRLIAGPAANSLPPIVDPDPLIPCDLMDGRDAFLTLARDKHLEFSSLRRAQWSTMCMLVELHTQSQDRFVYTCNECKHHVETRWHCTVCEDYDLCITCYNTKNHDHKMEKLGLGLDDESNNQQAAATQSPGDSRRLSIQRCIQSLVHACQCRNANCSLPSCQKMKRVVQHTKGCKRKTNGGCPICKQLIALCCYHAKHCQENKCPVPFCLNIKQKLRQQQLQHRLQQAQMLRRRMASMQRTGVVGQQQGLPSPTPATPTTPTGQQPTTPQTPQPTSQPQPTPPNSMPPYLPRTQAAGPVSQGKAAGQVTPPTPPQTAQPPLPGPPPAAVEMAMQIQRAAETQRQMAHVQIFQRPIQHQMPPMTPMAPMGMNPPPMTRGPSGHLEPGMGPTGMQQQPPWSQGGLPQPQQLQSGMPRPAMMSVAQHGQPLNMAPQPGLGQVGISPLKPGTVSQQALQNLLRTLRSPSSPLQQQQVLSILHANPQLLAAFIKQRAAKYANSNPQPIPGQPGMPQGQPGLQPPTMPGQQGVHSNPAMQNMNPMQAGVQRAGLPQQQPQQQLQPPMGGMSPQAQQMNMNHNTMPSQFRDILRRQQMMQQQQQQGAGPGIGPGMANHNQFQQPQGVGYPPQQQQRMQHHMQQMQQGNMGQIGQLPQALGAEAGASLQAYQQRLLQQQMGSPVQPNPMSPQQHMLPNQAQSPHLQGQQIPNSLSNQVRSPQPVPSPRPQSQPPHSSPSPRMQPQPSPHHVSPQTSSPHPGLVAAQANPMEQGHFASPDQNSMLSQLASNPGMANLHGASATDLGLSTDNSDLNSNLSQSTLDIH

Consider `CC(=O)Oc1ccccc1C(=O)O` [aspirin, acetylsalicylic acid], for which the “behaviour in the pH of the stomach” value is reported as “soluble”. The “tau acetylation in cell cultures” value with tau acetylation is “boost tau acetylation”.

With `O=C(O)c1ccccc1O` [salicylate, salicylic acid], at acetyltransferase p300, the “acetyltransferase p300-induced tau acetylation” value is “inhibited” and the tau levels result is recorded as “reduce tau levels”.

Consider `O=C(Oc1ccccc1C(=O)O)c1ccccc1O` [salsalate], for which the “behaviour in the pH of the stomach” value was “undergoes particulate dispersion”. Further, on acetyltransferase p300, the “acetyltransferase p300-induced tau acetylation” value was “inhibited” and the tau levels result is given as “reduce tau levels”. In data set [1], the hippocampal atrophy entry is recorded as “prevented”; the “levels of total tau and tau acetylated at K174” value was “lowered”; the p300 activity entry is listed as “inhibited p300 activity”; the tau-induced memory deficits entry was “rescued”. The brain penetration entry in data set [2] (in vivo) is “penetrates the brain”. Besides, the “stability of salicylate levels after salsalate” value in data set [2] (over 8 hours) is on record as “relatively stable salicylate levels over 8 hours”. For the same compound, in data set [3], the “salicylic acid obtained relative to an equivalent dose of aspirin (relative AUC)” value is “approximately 84%”. The “gastrointestinal bleeding and gastric erosions compared with aspirin” value in data set [4] is given as “significantly less”. Further, for the setting “small intestine pH”, the “solubility in the pH of the small intestine” value is “soluble”.
